pEC50: −log10 of the molar value.
Target: T1, Human M4 (Homo sapiens, UniProt P08173)
T1 construct: expressed in transfected cells
T1 sequence (P08173 1-479): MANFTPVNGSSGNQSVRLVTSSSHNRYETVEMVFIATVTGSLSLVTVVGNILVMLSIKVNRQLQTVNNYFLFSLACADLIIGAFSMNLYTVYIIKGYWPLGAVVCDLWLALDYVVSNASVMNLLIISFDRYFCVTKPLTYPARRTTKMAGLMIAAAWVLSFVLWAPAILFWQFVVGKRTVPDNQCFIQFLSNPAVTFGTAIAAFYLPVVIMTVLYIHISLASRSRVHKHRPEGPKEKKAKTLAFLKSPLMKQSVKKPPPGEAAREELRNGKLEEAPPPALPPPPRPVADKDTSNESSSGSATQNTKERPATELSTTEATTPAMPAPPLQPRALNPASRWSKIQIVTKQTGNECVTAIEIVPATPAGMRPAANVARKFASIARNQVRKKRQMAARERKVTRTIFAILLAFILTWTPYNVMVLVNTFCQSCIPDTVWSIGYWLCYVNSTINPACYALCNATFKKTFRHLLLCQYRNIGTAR
Assay: mAChR M4 cell-based functional assay (calcium flux, potentiation of EC20 acetylcholine response), hM4-Gqi5 CHO-K1 cells
Conditions: Table 3; for Emax at 30 µM: CHO-K1, Human M4, % ACh maximum at 30 μM, read-out: Emax (% ACh maximum at 30 μM); for pEC50: potentiation of EC20 acetylcholine response, calcium flux, CHO-K1 cells, read-out: Human M4 EC50
How it was run: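 Positive allosteric modulation was scored as a concentration-dependent rise in the response to an EC20 dose of acetylcholine, added 144 s after the compound. Human M4-Gqi5 CHO-K1 cells carried Fluo-4 dye, and compounds ran as 11-point, 3-fold dilution series. EC50 and Emax came from four-parameter logistic fits of the FDSS fluorescence-ratio traces.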

SMILES	Emax at 30 µM [%]	pEC50
Cc1c(N2CCc3ncc(N4CCN(C)CC4)cc3C2)nn2c(C(F)(F)F)nnc2c1C [Compound 276, 6-(7,8-dimethyl-3-(trifluoromethyl)-[1,2,4]triazolo[4,3-b]pyridazin-6-yl)-3-(4-methylpiperazin-1-yl)-5,6,7,8-tetrahydro-1,6-naphthyridine]	65	5.71
Cc1c(N2CCc3ncc(Oc4cccc(F)c4)cc3C2)nn2c(C(F)(F)F)nnc2c1C [Compound 278, 6-(7,8-dimethyl-3-(trifluoromethyl)-[1,2,4]triazolo[4,3-b]pyridazin-6-yl)-3-(3-fluorophenoxy)-5,6,7,8-tetrahydro-1,6-naphthyridine]	84	6.08
Cc1c(N2CCc3ncc(NC4CCOC4)cc3C2)nn2c(C(F)(F)F)nnc2c1C (centres unmarked) [Compound 279, 6-(7,8-dimethyl-3-(trifluoromethyl)-[1,2,4]triazolo[4,3-b]pyridazin-6-yl)-N-(tetrahydrofuran-3-yl)-5,6,7,8-tetrahydro-1,6-naphthyridin-3-amine]	86	6.00
Cc1c(N2CCc3ncc(N4CCCCC4)cc3C2)nn2c(C(F)(F)F)nnc2c1C [Compound 281, 6-(7,8-dimethyl-3-(trifluoromethyl)-[1,2,4]triazolo[4,3-b]pyridazin-6-yl)-3-(piperidin-1-yl)-5,6,7,8-tetrahydro-1,6-naphthyridine]	76	6.13
Cc1c(N2CCc3ncc(N4CCOc5ncccc54)cc3C2)nn2c(C(F)(F)F)nnc2c1C [Compound 282, 1-(6-(7,8-dimethyl-3-(trifluoromethyl)-[1,2,4]triazolo[4,3-b]pyridazin-6-yl)-5,6,7,8-tetrahydro-1,6-naphthyridin-3-yl)-2,3-dihydro-1H-pyrido[2,3-b][1,4]oxazine]	87	7.19
Cc1c(N2CCc3ncc(N4CCOC(C)(C)C4)cc3C2)nn2c(C(F)(F)F)nnc2c1C [Compound 286, 4-(6-(7,8-dimethyl-3-(trifluoromethyl)-[1,2,4]triazolo[4,3-b]pyridazin-6-yl)-5,6,7,8-tetrahydro-1,6-naphthyridin-3-yl)-2,2-dimethylmorpholine]	94	6.99
COC1CCN(c2cnc3c(c2)CN(c2nn4c(C(F)(F)F)nnc4c(C)c2C)CC3)C1 (centres unmarked) [Compound 288, 6-(7,8-dimethyl-3-(trifluoromethyl)-[1,2,4]triazolo[4,3-b]pyridazin-6-yl)-3-(3-methoxypyrrolidin-1-yl)-5,6,7,8-tetrahydro-1,6-naphthyridine]	77	6.03
Cc1ccc(Oc2cnc3c(c2)CN(c2nn4cnnc4c(C)c2C)CC3)c(F)c1 [Compound 289, 6-(7,8-dimethyl-[1,2,4]triazolo[4,3-b]pyridazin-6-yl)-3-(2-fluoro-4-methylphenoxy)-5,6,7,8-tetrahydro-1,6-naphthyridine]	102	6.58
Cc1ccc(Oc2cnc3c(c2)CN(c2nn4c(C(F)(F)F)nnc4cc2C)CC3)c(F)c1 [Compound 290, 3-(2-fluoro-4-methylphenoxy)-6-(7-methyl-3-(trifluoromethyl)-[1,2,4]triazolo[4,3-b]pyridazin-6-yl)-5,6,7,8-tetrahydro-1,6-naphthyridine]	69	5.77
Cc1ccc(Oc2cnc3c(c2)CN(c2nn4c(C(F)(F)F)nnc4c(C)c2C)CC3)c(F)c1 [Compound 291, 6-(7,8-dimethyl-3-(trifluoromethyl)-[1,2,4]triazolo[4,3-b]pyridazin-6-yl)-3-(2-fluoro-4-methylphenoxy)-5,6,7,8-tetrahydro-1,6-naphthyridine]	67	5.73
COC1CCCN(c2cnc3c(c2)CN(c2nn4c(C(F)(F)F)nnc4c(C)c2C)CC3)C1 (centres unmarked) [Compound 292, 6-(7,8-dimethyl-3-(trifluoromethyl)-[1,2,4]triazolo[4,3-b]pyridazin-6-yl)-3-(3-methoxypiperidin-1-yl)-5,6,7,8-tetrahydro-1,6-naphthyridine]	106	6.25
Cc1cc2nncn2nc1N1CCc2ncc(Oc3ccc(F)cc3F)cc2C1 [Compound 293, 3-(2,4-difluorophenoxy)-6-(7-methyl-[1,2,4]triazolo[4,3-b]pyridazin-6-yl)-5,6,7,8-tetrahydro-1,6-naphthyridine]	96	6.81
Cc1cc2nnc(C(F)(F)F)n2nc1N1CCc2ncc(Oc3ccc(F)cc3F)cc2C1 [Compound 296, 3-(2,4-difluorophenoxy)-6-(7-methyl-3-(trifluoromethyl)-[1,2,4]triazolo[4,3-b]pyridazin-6-yl)-5,6,7,8-tetrahydro-1,6-naphthyridine]	96	5.95
Cc1cc2nnc(C(F)(F)F)n2nc1N1CCc2ncc(Oc3cc(F)ccc3F)cc2C1 [Compound 298, 3-(2,5-difluorophenoxy)-6-(7-methyl-3-(trifluoromethyl)-[1,2,4]triazolo[4,3-b]pyridazin-6-yl)-5,6,7,8-tetrahydro-1,6-naphthyridine]	109	6.42

Further lines, results first:

Emax at 30 µM [%]	pEC50	SMILES
65	5.48	Cc1c(N2CCc3ncc(N4CCC5(CC4)COC5)cc3C2)nn2c(C(F)(F)F)nnc2c1C [Compound 274, 7-(6-(7,8-dimethyl-3-(trifluoromethyl)-[1,2,4]triazolo[4,3-b]pyridazin-6-yl)-5,6,7,8-tetrahydro-1,6-naphthyridin-3-yl)-2-oxa-7-azaspiro[3.5]nonane]
74	6.03	Cc1c(N2CCc3ncc(N4CCCC4)cc3C2)nn2c(C(F)(F)F)nnc2c1C [Compound 275, 6-(7,8-dimethyl-3-(trifluoromethyl)-[1,2,4]triazolo[4,3-b]pyridazin-6-yl)-3-(pyrrolidin-1-yl)-5,6,7,8-tetrahydro-1,6-naphthyridine]
85	6.41	Cc1c(N2CCc3ncc(Oc4ccccc4F)cc3C2)nn2c(C(F)(F)F)nnc2c1C [Compound 277, 6-(7,8-dimethyl-3-(trifluoromethyl)-[1,2,4]triazolo[4,3-b]pyridazin-6-yl)-3-(2-fluorophenoxy)-5,6,7,8-tetrahydro-1,6-naphthyridine]
85	6.16	Cc1c(N2CCc3ncc(N4CCC(F)(F)CC4)cc3C2)nn2c(C(F)(F)F)nnc2c1C [Compound 280, 3-(4,4-difluoropiperidin-1-yl)-6-(7,8-dimethyl-3-(trifluoromethyl)-[1,2,4]triazolo[4,3-b]pyridazin-6-yl)-5,6,7,8-tetrahydro-1,6-naphthyridine]
89	5.66	Cc1c(N2CCc3nnc(Cl)cc3C2)nn2c(C(F)(F)F)nnc2c1C [Compound 283, 3-chloro-6-(7,8-dimethyl-3-(trifluoromethyl)-[1,2,4]triazolo[4,3-b]pyridazin-6-yl)-5,6,7,8-tetrahydropyrido[4,3-c]pyridazine]
53	6.26	Cc1c(N2CCc3ncc(N4CCCn5nccc54)cc3C2)nn2c(Cl)nnc2c1C [Compound 284, 6-(3-chloro-7,8-dimethyl-[1,2,4]triazolo[4,3-b]pyridazin-6-yl)-3-(6,7-dihydropyrazolo[1,5-a]pyrimidin-4(5H)-yl)-5,6,7,8-tetrahydro-1,6-naphthyridine]
88	5.98	Cc1c(N2CCc3ncc(C(F)c4ccccc4)cc3C2)nn2c(C(F)(F)F)nnc2c1C (centres unmarked) [Compound 285, 6-(7,8-dimethyl-3-(trifluoromethyl)-[1,2,4]triazolo[4,3-b]pyridazin-6-yl)-3-(fluoro(phenyl)methyl)-5,6,7,8-tetrahydro-1,6-naphthyridine]
82	5.63	COC1CCN(c2cnc3c(c2)CN(c2nn4c(C(F)(F)F)nnc4cc2C)CC3)C1 (centres unmarked) [Compound 287, 3-(3-methoxypyrrolidin-1-yl)-6-(7-methyl-3-(trifluoromethyl)-[1,2,4]triazolo[4,3-b]pyridazin-6-yl)-5,6,7,8-tetrahydro-1,6-naphthyridine]
103	7.00	Cc1cc2nncn2nc1N1CCc2ncc(Oc3cccc(F)c3F)cc2C1 [Compound 294, 3-(2,3-difluorophenoxy)-6-(7-methyl-[1,2,4]triazolo[4,3-b]pyridazin-6-yl)-5,6,7,8-tetrahydro-1,6-naphthyridine]
109	7.39	Cc1cc2nncn2nc1N1CCc2ncc(Oc3cc(F)ccc3F)cc2C1 [Compound 295, 3-(2,5-difluorophenoxy)-6-(7-methyl-[1,2,4]triazolo[4,3-b]pyridazin-6-yl)-5,6,7,8-tetrahydro-1,6-naphthyridine]
100	5.96	Cc1cc2nnc(C(F)(F)F)n2nc1N1CCc2ncc(Oc3cccc(F)c3F)cc2C1 [Compound 297, 3-(2,3-difluorophenoxy)-6-(7-methyl-3-(trifluoromethyl)-[1,2,4]triazolo[4,3-b]pyridazin-6-yl)-5,6,7,8-tetrahydro-1,6-naphthyridine]

Reference: US20250002507A1, “7,8-DIHYDRO-5H-1,6-NAPHTHYRIDINE DERIVATIVES AS POSITIVE ALLOSTERIC MODULATORS OF THE MUSCARINIC ACETYLCHOLINE RECEPTOR M4 FOR TREATING NEUROLOGICAL AND PSYCHIATRIC DISORDERS” (Vanderbilt University, priority 2021, published 2025)
